Source: patent US20260234165A1, “MACROCYCLIC COMPOUNDS, PREPARATION METHOD THEREFOR, AND USE THEREOF” (GENFLEET THERAPEUTICS (SHANGHAI) INC., priority 2004, published 2026)

Assay: Pharmacokinetic study in rats
Assay type: in vivo, Sprague-Dawley (SD) rats
Conditions: Sprague-Dawley, rat, plasma, male SD rats
Description: A total of 6 healthy adult male Sprague-Dawley (SD) rats were provided by Zhejiang Vital River Laboratory Animal Technology Co., Ltd. For each test compound, 6 healthy adult male SD rats were selected and randomly divided into 2 groups: an intravenous administration (IV) group and an intragastric administration (PO) group. The LC-MS/MS method was used to determine the drug concentrations in the plasma of rats at different time points after intravenous and intragastric administration of the test compounds. This experiment was intended to investigate the pharmacokinetic performance of the test compounds in rats and to evaluate the pharmacokinetic characteristics. Each drug used in the experiment was prepared from the test compound powder: An appropriate amount of test compound powder was weighed out, and appropriate amounts of DMSO, a 10% aqueous Solutol HS 15 solution, and a 6% aqueous HP-β-CD solution were sequentially added according to a volume ratio of 5:10:85. The mixture was vortexed and sonicated until clarification. The final concentration of the drug in the IV group was 0.5 mg/mL, and the final concentration of the drug in the PO group was 1 mg/mL; the concentrations could be adjusted according to actual needs. For the drug in the PO group of Z504, an appropriate amount of test compound powder was weighed out, and an appropriate amount of 0.5% MC+0.2% Tween 80 aqueous solution was added. The mixture was well mixed by vortexing to give a 1 mg/mL homogeneous suspension: the concentration could be adjusted according to actual needs.
All experimental rats were fasted overnight, and food intake was resumed 4 h after administration. For the rats in the IV group, the administration volume was set at 2 mL/kg, with Z554 and Z915 administered at a dose of 0.5 mg/kg and the other compounds at a dose of 1 mg/kg. For the rats in the PO group, the administration volume was 10 mL/kg and the dose was 10 mg/kg. The administration amount was adjusted according to the body weight of the rats on the day of administration. In the experiment, blood samples were collected from the rats in the IV group at multiple time points (0.0833 h, 0.25 h, 0.5 h, 1 h, 2 h, 4 h, 7 h, and 24 h) after administration, while blood samples were collected from the PO group at 0.25 h, 0.5 h, 1 h, 2 h, 4 h, 7 h, and 24 h after administration, with approximately 100 μL collected each time via the orbital blood collection method.
The blood samples were placed in centrifuge tubes containing EDTA-K2 and centrifuged at 8000 rpm for 4 min within 30 min to separate the supernatant plasma. The resulting plasma samples were stored at −20° C. for later use. For sample analysis, 20 μL of each of plasma samples and calibration standards was added to a 96-well plate, and 160 μL of acetonitrile containing 100 ng/mL tolbutamide was added. The samples were vortexed for 5 min for uniform mixing, and then centrifuged at 4000 rpm for 15 min. After the centrifugation was completed, 50 μL of supernatant was added to a 96-well plate containing 150 μL of deionized water. The plate was then sealed and shaken for uniform mixing. Sample analysis was performed by LC-MS/MS.
The sampling volume could be adjusted according to actual needs, but the final concentration should be kept unchanged.

## CCn1c(-c2cc(C#CCN3CCCOCC3)cnc2[C@H](C)OC)c2c3cc(ccc31)-c1csc(n1)C[C@H](NC(=O)CC(C)C)C(=O)N1CCC[C@H](N1)C(=O)OCC(C)(C)C2 (single isomer, unassigned) [Compound Z803]
IV, dose 1 mg/kg
  clearance: 1.83 mL/min/kg
PO (intragastric), dose 10 mg/kg, read-out: AUC
  AUC: 8400 ng·h/mL
PO (intragastric), dose 10 mg/kg, read-out: Cmax
  Cmax: 1110 ng/mL
